Reference: US20060282906A1, “Non-transgenic rodent model of Alzheimer's disease” (priority 2005, published 2006)
Marks after values point to notes of the source that are not given here.

Legend:
rats = test: Barnes circular platform test; type: in vivo, rat
Method: All rats were anesthetized using 40 mg/kg of pentobarbital (Somnotol; MTC Pharmaceuticals, Cambridge, Ontario) intraperitoneally. Body temperature was maintained at 37° C. Aβ(25-35) (50 nmol in 10 μL of saline) was injected bilaterally into the lateral ventricles. Aβ(25-35) was prepared according to established methods (Sigurdsson, et al. (1997) supra). […] (1997) supra). […] After wound suture, all rats received […] of buprenorphine intramuscularly and were allowed to recover from surgery for 7 days. Learning and memory deficits were assessed using the Barnes circular platform. There are twenty holes evenly located along the border of circular platform with a hidden escape box beneath one of the holes. The circular platform is equipped with colored cues on the surrounding wall. A bright light combined with wind from a fan hung on the ceiling above the platform provides the incentive for the rats to find the hidden box and enter the escape hole. During each trial, the rats were initially placed in the center of the platform under an inverted box, then the box was lifted up and the rat is allowed to find the hole for up to 4 minutes. The latency (time to enter the escape hole) was recorded during the trial. There was a training period (trials 1-14) performed at day −7 to day −1 before surgery (day 0). PDTC or vehicle treatment was given 30 minutes before Aβ(25-35) injections and from days 1 to 7 post-surgery. Spatial memory was then tested on day 8 (trial 15) with the escape hole placed in the same location. Spatial learning was examined by re-testing (re-acquisition) from days 9 to 15 (trials 16-29) with the escape box relocated at […] from the original location. Digital photographs were taken using a light microscope (Leitz Diaplan). […] Also, relative optical density measurements and numbers of stained cells or accumulations were measured in entire brain areas for quantitative analysis and statistically analyzed with ANOVA and Tukey post hoc test with a significance level of P<0.05. […] The staircase data are expressed as the mean±SEM. […] Data are expressed as mean±SEM. […]

Male Wistar rats [1] = test: Immunohistochemistry of rat brain sections, grading scale of staining size and intensity; type: in vivo; parameters: key to Effect of Triflusal on NKκB(p65) immunostaining / Effect of Triflusal on COX-2 immunostaining / Effect of Triflusal on GFAP immunostaining / Effect of Triflusal on OX-6 immunostaining / Effect of Triflusal on APP immunostaining / Effect of Triflusal on Tau-2 immunostaining / Effect of Triflusal on TNFα immunostaining / Effect of Triflusal on Cas-3 immunostaining: −: no effect; ↓: moderate reduction; ↓↓: strong reduction
Method: (§1) Male Wistar rats (250 to 300 grams; Charles River, Montreal, Quebec) were divided into 4 groups: intracerebroventricular injections of Aβ(25-35) (BACHEM, Torrance, Calif.); endothelin injections into the right striatum; both Aβ(25-35) and striatal endothelin injections; and sham procedures. The Aβ(25-35) fragment was used to reduce the possibility of rapid coagulation and to allow diffusion of the peptide into the brain.
(§2) All rats were anesthetized using 40 mg/kg of pentobarbital (Somnotol; MTC Pharmaceuticals, Cambridge, Ontario) intraperitoneally. Body temperature was maintained at 37° C. Aβ(25-35) (50 nmol in 10 μL of saline) was injected bilaterally into the lateral ventricles. Aβ(25-35) was prepared according to established methods (Sigurdsson, et al. (1997) supra). Aβ(25-35) (50 nmol in 10 μL of saline at a rate of 1 μL/minute) was injected bilaterally into the lateral ventricles via a stainless-steel cannula (23-gauge; anterior/posterior −0.8, medial/lateral ±1.4, and dorsal/ventral −4.0 below dura). Two endothelin injections (6 pmol in 3 μL of saline), 1 mm apart, were made into the right striatum (Sigurdsson, et al. (1997) supra). Sham procedures involved all the surgical steps without injections of Aβ(25-35) or endothelin. After wound suture, all rats received 40 mg/kg of buprenorphine intramuscularly and were allowed to recover from surgery for 7 days.
(§3) Twenty-one days after surgery, all animals were euthanized via pentobarbital overdose and perfused transaortically first with saline followed by 4% formaldehyde (pH 7.4). The brains were removed and cryoprotected in 30% sucrose for 36 hours at 4° C. Coronal sections (30 pm) were cut using a cryostat.
(§4) Free-floating sections from rat brains (n=5 for each group) were treated with 0.03% hydrogen peroxide and blocked with 3 mL of horse or rabbit serum (VECTASTAIN® Elite, Vector Laboratories, Burlingame, Calif.). The following primary antibodies were diluted in filtered phosphate-buffered saline: APPa4 mouse monoclonal (Chemicon International Inc, Temecula, Calif.; 1:1000), GFAP mouse monoclonal (Sigma-Aldrich, St Louis, Mo.; 1:1000), OX-6 mouse monoclonal (Serotec, Inc., Raleigh, N.C.; 1:1000), Tau-2 mouse monoclonal (Sigma-Aldrich, St Louis, Mo.; 1:10000), NFκB(p65) goat polyclonal (Santa Cruz Biotechnologies, Santa Cruz, Calif.; 1:1000), IL-1β goat polyclonal (Santa Cruz Biotechnologies, Santa Cruz, Calif.; 1:1000), and TNF-α-M18 goat polyclonal (Santa Cruz Biotechnologies, Santa Cruz, Calif.; 1:1000). APP-, Tau-2-, GFAP-, and OX-6-stained sections were incubated with 3 mL of horse biotinylated anti-mouse secondary antibody and horse serum. NFκB(p65), IL-1β, and TNF-α-stained sections were incubated with 3 mL of biotinylated rabbit anti-goat secondary antibody and rabbit serum. Sections were then incubated in 3 mL of avidin-biotin complex followed by 0.05% diaminobenzidine. Sections were washed, air-dried, cleared in xylene, and cover-slipped. Brains to be compared were processed at the same time using the same solutions to reduce variability in immunostaining caused by separate processing.
(§5) Digital photographs were taken using a light microscope (Leitz Diaplan). An investigator was blinded to the identification of the rat sections while analysis was being performed. All immunohistochemical data that were compared was processed at the same time to reduce any variation caused by differences of intensity. A grading scale was based on both observable size and intensity of staining (n=5 for each group). Also, relative optical density measurements and numbers of stained cells or accumulations were measured in entire brain areas for quantitative analysis and statistically analyzed with ANOVA and Tukey post hoc test with a significance level of P<0.05.

Male Wistar rats [2] = test: Quantitative immunohistochemistry: relative optical density and numbers of stained cells or accumulations; type: in vivo, rat; conditions: Trifusal treatment (brackets)
Method: as §1, §2, §3, §4, §5

[3] = Corpus Callosum, Aβ-Endothelin rats
[4] = Hippocampus, Aβ-Endothelin rats
[5] = Hypothalamus, Aβ-Endothelin rats
[6] = Striatum (right), Aβ-Endothelin rats
[7] = Striatum (right), Endothelin rats
[8] = Thalamus (right), Aβ-Endothelin rats
[9] = Thalamus (right), Endothelin rats
[10] = Left Hippocampus, Endothelin rats
[11] = Right Hippocampus, Aβ/Endo rats
[12] = Right Hippocampus, Endothelin rats

Structure (SMILES): S=C(S)N1CCCC1 [PDTC, pyrrolidine dithiocarbamate]
- Effect on Aβ(25-35) induced increases in latency (rats; 100 mg/kg 30 minutes before Aβ(25-35) injections and 7 days post-surgery, trial 15 (day 8) vs trial 14 (day −1)): prevented the Aβ(25-35) induced increases in latency
- test response (latency) vs Aβ(25-35) group with vehicle treatment (rats; Aβ(25-35) group treated with PDTC, P<0.05, not significantly different from sham groups): significantly less

Structure (SMILES): CC(=O)Oc1cc(C(F)(F)F)ccc1C(=O)O [Triflusal]
- Effect of Triflusal on APP immunostaining (Male Wistar rats [1]; Corpus Callosum, Aβ rats): ↓↓
- Effect of Triflusal on COX-2 immunostaining (Male Wistar rats [1]; Corpus Callosum, Aβ rats): ↓↓
- Effect of Triflusal on GFAP immunostaining (Male Wistar rats [1]; Corpus Callosum, Aβ rats): ↓↓
- Effect of Triflusal on NKκB(p65) immunostaining (Male Wistar rats [1]; Corpus Callosum, Aβ rats): ↓↓
- Effect of Triflusal on OX-6 immunostaining (Male Wistar rats [1]; Corpus Callosum, Aβ rats): ↓↓
- Effect of Triflusal on TNFα immunostaining (Male Wistar rats [1]; Corpus Callosum, Aβ rats): ↓↓
- Effect of Triflusal on Tau-2 immunostaining (Male Wistar rats [1]; Corpus Callosum, Aβ rats): ↓↓
- Effect of Triflusal on APP immunostaining (Male Wistar rats [1]; [3]): −
- Effect of Triflusal on COX-2 immunostaining (Male Wistar rats [1]; [3]): ↓
- Effect of Triflusal on GFAP immunostaining (Male Wistar rats [1]; [3]): −
- Effect of Triflusal on NKκB(p65) immunostaining (Male Wistar rats [1]; [3]): ↓
- Effect of Triflusal on OX-6 immunostaining (Male Wistar rats [1]; [3]): ↓
- Effect of Triflusal on TNFα immunostaining (Male Wistar rats [1]; [3]): −
- Effect of Triflusal on Tau-2 immunostaining (Male Wistar rats [1]; [3]): −
- Effect of Triflusal on GFAP immunostaining (Male Wistar rats [1]; Corpus Callosum, Endothelin rats): −
- Effect of Triflusal on APP immunostaining (Male Wistar rats [1]; Cortex, Aβ rats): ↓↓
- Effect of Triflusal on COX-2 immunostaining (Male Wistar rats [1]; Cortex, Aβ rats): ↓↓
- Effect of Triflusal on GFAP immunostaining (Male Wistar rats [1]; Cortex, Aβ rats): −
- Effect of Triflusal on NKκB(p65) immunostaining (Male Wistar rats [1]; Cortex, Aβ rats): ↓
- Effect of Triflusal on OX-6 immunostaining (Male Wistar rats [1]; Cortex, Aβ rats): ↓
- Effect of Triflusal on TNFα immunostaining (Male Wistar rats [1]; Cortex, Aβ rats): ↓
- Effect of Triflusal on Tau-2 immunostaining (Male Wistar rats [1]; Cortex, Aβ rats): ↓↓
- Effect of Triflusal on APP immunostaining (Male Wistar rats [1]; Cortex, Aβ-Endothelin rats): −
- Effect of Triflusal on COX-2 immunostaining (Male Wistar rats [1]; Cortex, Aβ-Endothelin rats): ↓
- Effect of Triflusal on GFAP immunostaining (Male Wistar rats [1]; Cortex, Aβ-Endothelin rats): −
- Effect of Triflusal on NKκB(p65) immunostaining (Male Wistar rats [1]; Cortex, Aβ-Endothelin rats): −
- Effect of Triflusal on OX-6 immunostaining (Male Wistar rats [1]; Cortex, Aβ-Endothelin rats): −
- Effect of Triflusal on TNFα immunostaining (Male Wistar rats [1]; Cortex, Aβ-Endothelin rats): ↓
- Effect of Triflusal on Tau-2 immunostaining (Male Wistar rats [1]; Cortex, Aβ-Endothelin rats): −
- Effect of Triflusal on GFAP immunostaining (Male Wistar rats [1]; Cortex, Endothelin rats): −
- Effect of Triflusal on APP immunostaining (Male Wistar rats [1]; Hippocampus, Aβ rats): ↓
- Effect of Triflusal on COX-2 immunostaining (Male Wistar rats [1]; Hippocampus, Aβ rats): ↓
- Effect of Triflusal on GFAP immunostaining (Male Wistar rats [1]; Hippocampus, Aβ rats): −
- Effect of Triflusal on NKκB(p65) immunostaining (Male Wistar rats [1]; Hippocampus, Aβ rats): ↓
- Effect of Triflusal on OX-6 immunostaining (Male Wistar rats [1]; Hippocampus, Aβ rats): ↓
- Effect of Triflusal on Tau-2 immunostaining (Male Wistar rats [1]; Hippocampus, Aβ rats): ↓
- Effect of Triflusal on APP immunostaining (Male Wistar rats [1]; [4]): −
- Effect of Triflusal on COX-2 immunostaining (Male Wistar rats [1]; [4]): −
- Effect of Triflusal on GFAP immunostaining (Male Wistar rats [1]; [4]): −
- Effect of Triflusal on NKκB(p65) immunostaining (Male Wistar rats [1]; [4]): −
- Effect of Triflusal on OX-6 immunostaining (Male Wistar rats [1]; [4]): −
- Effect of Triflusal on Tau-2 immunostaining (Male Wistar rats [1]; [4]): −
- Effect of Triflusal on GFAP immunostaining (Male Wistar rats [1]; Hippocampus, Endothelin rats): −
- Effect of Triflusal on APP immunostaining (Male Wistar rats [1]; Hypothalamus, Aβ rats): ↓
- Effect of Triflusal on NKκB(p65) immunostaining (Male Wistar rats [1]; Hypothalamus, Aβ rats): ↓↓
- Effect of Triflusal on TNFα immunostaining (Male Wistar rats [1]; Hypothalamus, Aβ rats): ↓↓
- Effect of Triflusal on APP immunostaining (Male Wistar rats [1]; [5]): −
- Effect of Triflusal on NKκB(p65) immunostaining (Male Wistar rats [1]; [5]): ↓
- Effect of Triflusal on TNFα immunostaining (Male Wistar rats [1]; [5]): ↓
- Effect of Triflusal on GFAP immunostaining (Male Wistar rats [1]; Striatum (right), Aβ rats): −
- Effect of Triflusal on APP immunostaining (Male Wistar rats [1]; [6]): ↓
- Effect of Triflusal on COX-2 immunostaining (Male Wistar rats [1]; [6]): ↓
- Effect of Triflusal on GFAP immunostaining (Male Wistar rats [1]; [6]): −
- Effect of Triflusal on NKκB(p65) immunostaining (Male Wistar rats [1]; [6]): ↓
- Effect of Triflusal on OX-6 immunostaining (Male Wistar rats [1]; [6]): ↓
- Effect of Triflusal on TNFα immunostaining (Male Wistar rats [1]; [6]): ↓
- Effect of Triflusal on APP immunostaining (Male Wistar rats [1]; [7]): ↓↓
- Effect of Triflusal on COX-2 immunostaining (Male Wistar rats [1]; [7]): ↓↓
- Effect of Triflusal on Cas-3 immunostaining (Male Wistar rats [1]; [7]): ↓
- Effect of Triflusal on GFAP immunostaining (Male Wistar rats [1]; [7]): −
- Effect of Triflusal on NKκB(p65) immunostaining (Male Wistar rats [1]; [7]): ↓
- Effect of Triflusal on OX-6 immunostaining (Male Wistar rats [1]; [7]): ↓↓
- Effect of Triflusal on TNFα immunostaining (Male Wistar rats [1]; [7]): ↓
- Effect of Triflusal on OX-6 immunostaining (Male Wistar rats [1]; Thalamus (right), Aβ rats): −
- Effect of Triflusal on TNFα immunostaining (Male Wistar rats [1]; Thalamus (right), Aβ rats): −
- Effect of Triflusal on OX-6 immunostaining (Male Wistar rats [1]; [8]): −
- Effect of Triflusal on TNFα immunostaining (Male Wistar rats [1]; [8]): −
- Effect of Triflusal on OX-6 immunostaining (Male Wistar rats [1]; [9]): −
- Effect of Triflusal on TNFα immunostaining (Male Wistar rats [1]; [9]): −
- APP Accumulation (Male Wistar rats [2]; Left Cortex, Aβ rats): (12.5 ± 2.6)^x
- APP Accumulation (Male Wistar rats [2]; Left Cortex, Aβ/Endo rats): 64.5 ± 10.2)
- APP Accumulation (Male Wistar rats [2]; Left Cortex, Endothelin rats): (7.3 ± 1.3)
- APP Accumulation (Male Wistar rats [2]; Left Cortex, Sham rats): (7.3 ± 2.3)
- GFAP Intensity (Male Wistar rats [2]; Left Hippocampus, Aβ rats): (166.8 ± 9.1)
- OX6 Intensity (Male Wistar rats [2]; Left Hippocampus, Aβ rats): (109.8 ± 6.8)^a
- GFAP Intensity (Male Wistar rats [2]; Left Hippocampus, Aβ/Endo rats): (188.9 ± 4.4)
- OX6 Intensity (Male Wistar rats [2]; Left Hippocampus, Aβ/Endo rats): (149.0 ± 7.1)
- GFAP Intensity (Male Wistar rats [2]; [10]): (148.8 ± 4.5)
- OX6 Intensity (Male Wistar rats [2]; [10]): (106.8 ± 6.4)
- GFAP Intensity (Male Wistar rats [2]; Left Hippocampus, Sham rats): (150.8 ± 5.5)
- OX6 Intensity (Male Wistar rats [2]; Left Hippocampus, Sham rats): (97.9 ± 2.0)
- APP Accumulation (Male Wistar rats [2]; Right Cortex, Aβ rats): (11.0 ± 2.1)^x
- APP Accumulation (Male Wistar rats [2]; Right Cortex, Aβ/Endo rats): (85.8 ± 16.1)
- APP Accumulation (Male Wistar rats [2]; Right Cortex, Endothelin rats): (13.3 ± 2.1)
- APP Accumulation (Male Wistar rats [2]; Right Cortex, Sham rats): (5.0 ± 2.7)
- GFAP Intensity (Male Wistar rats [2]; Right Hippocampus, Aβ rats): (164.2 ± 10.1)
- OX6 Intensity (Male Wistar rats [2]; Right Hippocampus, Aβ rats): (110.8 ± 4.6)^x
- GFAP Intensity (Male Wistar rats [2]; [11]): (188.3 ± 8.2)
- OX6 Intensity (Male Wistar rats [2]; [11]): (149.4 ± 7.4)^x
- GFAP Intensity (Male Wistar rats [2]; [12]): (150.1 ± 3.6)^x
- OX6 Intensity (Male Wistar rats [2]; [12]): (97.3 ± 4.5)^x
- GFAP Intensity (Male Wistar rats [2]; Right Hippocampus, Sham rats): (152.5 ± 7.9)
- OX6 Intensity (Male Wistar rats [2]; Right Hippocampus, Sham rats): (93.4 ± 1.4)
